These are literature values, as cited in patent publication US20080260864A1, “Topical Compositions for the Treatment of Depilation-Induced Irritation or Prevention Thereof” (MEDIDERMIS LTD., priority 2005, published 2008).

Molecules are shown by their SMILES.

In this data set the test system is skin / tissue.
Where [1] appears, read: Hawley's Condensed Chemical Dictionary.

Regarding `[Al+3].[Cl-].[Cl-].[Cl-]` [Anhydrous aluminium chloride, Aluminium chloride anhydrous], under setting [1], the irritancy to tissue entry is reported as “powerful irritant” and the toxicity by ingestion result is recorded as “moderately toxic”.

In the case of `S1SSSSSSS1` [Sulfur], the skin irritation entry (The Merck Index) was “may cause skin irritation”. Besides, where the note is “UpToDate drug information”, the “effect of repeated applications” value was “may cause contact dermatitis”.
